The record followed here is patent US9796662B2 (priority 2010, dated 2017).

With `C=CCCCCCCCC(=O)OCC[N+](C)(C)C` [C10-7, C10 DMEA Ester Quat], the “Emulsion stability, mL separation, 1 h, Adjuvant” value was found to be 0 mL; the “Emulsion stability, mL separation, 1 h, Anionic” value stood at 0 mL; the “Emulsion stability, mL separation, 1 h, Nonionic” value stood at 0 mL; the “Emulsion stability, mL separation, 24 h, Adjuvant” value is 0 mL. For the same molecule, the “Emulsion stability, mL separation, 24 h, Anionic” value came to 0 mL and the “Emulsion stability, mL separation, 24 h, Nonionic” value was determined as 0 mL.

For the molecule `CC/C=C/CCCCCCCC(=O)OCC[N+](C)(C)C` [C12-7, C12 DMEA Ester Quat], the “Emulsion stability, mL separation, 1 h, Adjuvant” value is on record as 0 mL; the “Emulsion stability, mL separation, 1 h, Anionic” value stood at 0 mL; the “Emulsion stability, mL separation, 1 h, Nonionic” value is reported as 0 mL; the “Emulsion stability, mL separation, 24 h, Adjuvant” value stood at 0 mL. Further, the “Emulsion stability, mL separation, 24 h, Anionic” value was determined as 0 mL and the “Emulsion stability, mL separation, 24 h, Nonionic” value is recorded as 0 mL.

Regarding `C[N+](C)(C)CCOC(=O)CCCCCCC/C=C/CCCCCCCC(=O)OCC[N+](C)(C)C` [Mix-16, C18 diMEA DiQuat], the “Emulsion stability, mL separation, 1 h, Adjuvant” value was found to be 0.25 mL; the “Emulsion stability, mL separation, 1 h, Anionic” value turned out to be 0 mL; the “Emulsion stability, mL separation, 24 h, Adjuvant” value was 0.25 mL; the “Emulsion stability, mL separation, 24 h, Anionic” value turned out to be 0 mL.
